Literature values, collected in US20250073182A1, “LOW DOSAGE GOSSYPOL CON[…] RODENTS” (priority 2023, published 2025).

Experiments:
female rats = female rats (Gadelha et al. 2014; Lin, et al., 1985)
[1] = test system: ovarian follicles of female mice; settings: in vitro, all stages of development (Luz et al. 2018; Ding et al. 2021)
[2] = gossypol in cottonseed meal at 15 mg/kg per day for 4 weeks
[3] = low doses, after 4 weeks (Nadakavukaren et al. 1979)

For `Cc1cc2c(C(C)C)c(O)c(O)c(C=O)c2c(O)c1-c1c(C)cc2c(C(C)C)c(O)c(O)c(C=O)c2c1O` (atropisomer, axis not shown) [gossypol], the “epididymal and accessory sex glands weights” value (male rats; daily 30 mg/kg for 6 weeks or 7.5 and 15 mg/kg for 12 weeks (Chang et al. 1982)) is given as “reduced”, the fertility (male rats; [2]) is given as “reduced” and the toxicity (male rats; [2]) is given as “absent”. For the same molecule, the “effects at high doses in rats” value (male rats; high doses (Romualdo et al. 2002; Gadelha et al. 2014)) was “reduced food intake, anorexia, and hepatic toxicity”, the offspring produced (male rats; [3]) was “no offspring were produced” and the spermatozoa with defects (male rats; [3]) was “over 50%”. The pregnancy rates (male rats; male rats given ≥10 mg/kg/d, bred to fertile females, as early as 6 weeks (Randel et al. 1992)) was “significantly lower”, the “fertility after withdrawal of treatment” value (male rats; rats (Chang et al. 1982)) was “recovery in fertility” and the seminal vesicle weight (male mice; 20 or 40 mg/kg body weight, 3 weeks (Singh and Rath, 1990)) was “significant decrease”. The sperm counts (male mice; two mouse strains, 10 and 20 mg/kg BW orally for 4 weeks (Hunt and Mittwoch 1984)) was “reduced”, the estrous cycle (female rats) was “longer estrous cycle” and the “number of atretic follicles” value [1] was “increased”. For the same molecule, the “number of viable follicles” value [1] was “significantly decreased”.
